Results on three molecules are retold here after article PMC11729428, “New Potent Inhibitor of Transforming Growth Factor-Beta (TGFβ) Signaling that is Efficacious against Microsatellite Stable Colorectal Cancer Metastasis in Combination with Immune Checkpoint Therapy in Mice” (ACS Pharmacology & Translational Science, 2024).

Molecules are shown by their SMILES. Read-outs that look alike come from different tables or passages of the source.

Series [1] relates to panel of 97 wild-type and disease-relevant mutant kinases. Format: binding. Conditions: for Additional kinases showing >85% competitive binding: besides ALK5 and ALK4/ACVR1B. From the text:
We also assessed the selectivity of these three inhibitors toward a panel of 97 wild-type and disease-relevant mutant kinases, distributed throughout various kinase families.
Figure 2 Selectivity of HYL001. […] TK: tyrosine kinases; TKL: tyrosine kinase-like kinases; STE: serine/threonine kinases; CK1: casein kinase 1 family; AGC: serine/threonine kinases, regulated by secondary messengers such as cyclic AMP (PKA) or lipids (PKC); CAMK: Ca^2+/calmodulin-dependent protein kinase family; and CMGC: primarily proline-directed serine/threonine kinases (CDKs, GSKs, MAP kinases, and CDK-like kinases).
5. Methods for In vitro characterizations of HYL001
Kinase affinity and selectivity
The affinity of the ALK5 inhibitor HYL001 was determined for the ALK kinase family using the […]
DNA-tagged kinases and immobilized assay ligands, using quantitative PCR —run by Eurofins/DiscoveryX (Birmingham AL, USA). Dissociation constants were calculated by measuring the amount of kinase captured on the solid support as a function of the test compound concentration. Kd values were obtained by an 11 -point […]
(BMPR1A), ALK4 (ACVR1B), ALK6 (BMPR1B), ACVR2B and TGFβ R2. In addition, this technology was […]
The strength of competitive binding, defined as the percentage of binding inhibition of kinases to assay ligan d, was visualized using the TREEspot software (DiscoverRx Corporation) and a selectivity score was calculated (the fraction of non -mutated kinases tested with competitive binding inhibition above threshold percentages 65 […]

A further series deals with TGFβ pathway. The series is described as follows: Cellular TGFβ reporter (12xCAGA luciferase) assay in HEK293T cells. Format: cell-based. The note with it: for IC50: Homo sapiens, HEK-293T, 5 ng/mL recombinant TGFβ, 12xCAGA luciferase reporter, read-out: cellular inhibition TGFβ pathway IC50. How it is done: We next tested the three inhibitors in a cellular assay, using a luciferase-based reporter assay[20] in HEK293T cells in the presence or absence of inhibitors (Table 1). Upon activation of the endogenous receptors by 5 ng/mL recombinant TGFβ, phosphorylation of the TGFBR1 triggers phosphorylation of the intracellular mediators SMAD2/3, and subsequent nuclear translocation with SMAD4. The SMAD2/3-SMAD4 complex binds to the TGFβ response element (12xCAGA) allowing the transcription of the Firefly luciferase reporter.
HEK293T cells were purchased from the ATCC and cultured in DMEM supplemented with L-glutamine and 10% fetal bovine serum (Life Technologies) at 37 °C and 5% CO2. The cells were seeded in 24-well plates and transfected with plasmids encoding 12xCAGA-Firefly_Luc and Tk-Renilla_Luc (75 and 10 ng per well, respectively) using polyethylenimine (Polysciences) as the transfection reagent. After 7 h, the medium was replaced with starvation medium (DMEM + 0.05% FBS). […] Bioluminescence was measured in a Berthold Lumat LB6507 luminometer (18 μL of reagents, 10 s measurements). Results were normalized to those of the Renilla transfection control. Inhibition–concentration curves were analyzed in Prism Graphpad Prism (v10.1.1) with a least-squares regression nonlinear fit.
A general note: Reporter assays use an easily measured gene product as a stand-in for the process of interest.

The nature of series [2]: Metabolic stability in human cryopreserved hepatocytes. It is filed as in vitro ADME. The procedure:
(§1) Metabolic stability in human primary hepatocytes
This assay was performed at Sai Life Sciences Lt. (Telangana, India) with human suspension hepatocytes […]
(§2) All other reactions were initiated by […]
analysis by LC-MS/MS, using MRM mode. […]
related to phase I and phase II metabolism, respectively.
The PARs were used for calculation of metabolic stability. The 0 min area ratio was considered as 100%. The […]
incubation volume / number of cells (in millions) x K e. To calculate into full body context, the values of 120 […]

Series [3] can be described thus: Buffer stability (hepatocyte assay control). It is filed as physicochemical. How it is done: Similarly, buffer was added to recovery and stability samples. Next,
Samples were monitored for
parent compound using multiple reaction monitoring (MRM) mode. […]
as §1
This assay was performed at Sai Life Sciences Lt. (Telangana, India) with human suspension hepatocytes
as §2

For series [4], the system named is mouse tumor organoids (MTOs), established CRC liver metastases. The series is described as follows: Treatment of established CRC liver metastases, alone or with anti-PD1. It is filed as in vivo, mice. The note with it: for Cure of established liver metastases as monotherapy: 0.1× doses: 80, 82 and 71 mg/kg BID for galunisertib, vactosertib and HYL001, anti-PD1 IP alone. How it is done:
Encouraged by the increased potency observed in vitro and in the inhibition of liver metastatic initiation in vivo, we evaluated the ability of a relatively low HYL001 dose to help overcome established liver metastases when combined with immune checkpoint inhibition. In this experimental set up, a low number of MTO cells (25K) was injected in the portal vein (leaving the spleen unaltered), and liver metastases were allowed to develop and grow for 15 days before treatment with TGFβ inhibitors was initiated. This was done in combination with 3–4 intraperitoneal (IP) injections of immune-checkpoint inhibition therapy (anti-PD1 or isotype control antibody), spaced 2–3 days (Figure 6A,B).
Figure 6 HYL001 efficacy in dual immunotherapy against established CRC liver metastases. (A) Overview of experimental timing: dual treatment between days 14 and 28 after MTO injection (TGFβ inhibitor doses were all 0.1 ×); follow-up until humane end point. Below: numbers of countable liver lesions after sacrifice. Statistical comparisons to the vehicle + IgG2a control (above) or the vehicle+αPD1 condition (below) by two-tailed Mann–Whitney U test; ns: P ≥ 0.05; *P < 0.05; **P < 0.01; ***P < 0.001; ****P < 0.0001. (B) Kaplan–Meier curves indicate the survival (until humane end point) of mice under each treatment; P values were computed by the Mantel–Cox test (Log-rank).
For all tumor cell injections, C57BL/6J (or athymic BALB/C nu/nu) mice were purchased from Janvier at 6 weeks of age and injected at 7–8 weeks. Sex was matched with the origin of the tumor organoids, i.e., males for this study. Intrasplenic or portal vein injections, respectively, with 31G needles on 1 mL insulin syringes or 33G needles on a 50/100 μL Hamilton syringe, were used for liver colonization by the introduction of dissociated organoids (single cells) into the portal circulation. MTOs were cultured in standard six-well plates for 4 days and trypsinized as described before.[5] The resulting single cell suspension in HBSS (Lonza) was filtered through 100 and 40 μm mesh (to remove clumps of cells and aggregated debris). Intrasplenic injections were performed, as previously described,[5],[8],[9] using 2 × 10^5 cells in 70 μL HBSS. For portal vein injections, […] in 25 μL HBSS were injected directly into the portal vein.[5] Mice were euthanized at 3–5 weeks or at the humane end point (advanced metastasis-associated morbidity causing or threatening to cause severe suffering) to obtain survival-type data. Visible liver metastases were counted, and data were analyzed using GraphPad Prism software (v.7.03).
Gavage treatments were performed by technicians from the animal facility, not involved in this study (blinded). For checkpoint immunotherapy or dual treatments, we used rat anti-PD-1 (RMP1–14; Leinco P372) or rat IgG2a (Leinco I-1177) isotype-control antibodies.

Where [5] appears, read: 10 μM compound, 90 kinases tested.
Setting [6] is: human, hepatocytes, 0 h, pH 7.4.
Where [7] appears, read: human, hepatocytes, 5 min, pH 7.4.
Setting [8] is: human, hepatocytes, 0.25 h, pH 7.4.
Where [9] appears, read: human, hepatocytes, 0.5 h, pH 7.4.
The mark [10] stands for this setting: human, hepatocytes, pH 7.4, Disappearance T1/2.

Usually IC50 stands for the concentration at which inhibition is half-maximal. For orientation: CLint scaled means a measure of how fast metabolising enzymes remove a compound, apart from limits set by blood flow. In the case of `Cc1cccc(-c2nn3c(c2-c2ccnc4ccc(C(N)=O)cc24)CCC3)n1` [galunisertib], the “Number of kinase interactions (>65% competitive binding inhibition)” value (shortened to “Number … (>65% competitive binding inhibition)”) in series [1] (setting [5]) was 10. Besides, in the series on TGFβ pathway, the IC50 worked out at 157 nM. The Parent compound remaining in series [2] (setting [6]) was determined as 100%; in series [2] (setting [7]), 97%; in series [2] (setting [8]), 92%; in series [2] (setting [9]), 90%; in series [2] (human, hepatocytes, 1 h, pH 7.4), 76%. This molecule came in with a CLint scaled in series [2] (human, hepatocytes, pH 7.4) of 10.4 mL/min/kg. The half-life in series [2] (human, hepatocytes, pH 7.4, Assumed T1/2) was 160 min; in series [2] (setting [10]), above 60 min. The “Buffer Stability” value in series [3] (0 min, pH 7.4) worked out at 100%; in series [3] (60 min, pH 7.4) it was 105%. Moreover, the “Cure of established liver metastases as monotherapy” value (from here on “Cure … as monotherapy”) in series [4] is listed as “not efficacious”.
For the molecule `Cc1cccc(-c2[nH]c(CNc3ccccc3F)nc2-c2ccc3ncnn3c2)n1` [vactosertib, N -((4-([1,2,4]Triazolo[1,5-a]Pyridin-6-Yl)-5-(6-Methylpyridin-2-Yl)-1 H -Imidazole-2-Yl)Methyl)-2-Fluoroaniline], the “Number … (>65% competitive binding inhibition)” value in series [1] (setting [5]) came out at 24. Moreover, in series [1], the “Additional kinases showing >85% competitive binding” value was “ERBB2, FGFR2/3, KIT, MEK1/2, PDGFRA/B, SRC, and VEGFR2”. Also, in the series with TGFβ pathway, the IC50 is 10 nM. In addition, in series [2] (hepatocytes (suspension, cryopreserved), pH 7.4, scaled using 120 M cells per g liver, liver weight 20 g/kg (human), read-out: Scaled in vivo Clint), the CLint scaled stood at 30.1 mL/min/kg. Further, the Parent compound remaining was 100% in series [2] (human hepatocytes, incubation time 0 min); 60% in series [2] (human hepatocytes, incubation time 5 min); 59% in series [2] (human hepatocytes, incubation time 15 min); 52% in series [2] (human hepatocytes, incubation time 30 min); below 50% in series [2] (human hepatocytes, incubation time 60 min); 39% in series [2] (human hepatocytes, incubation time 60 min, listed as Vactosertib). In addition, the half-life in series [2] (human, hepatocytes (suspension, cryopreserved), pH 7.4, human hepatocytes, read-out: Disappearance T1/2) was 55.3 min. Further, the “Buffer Stability” value in series [3] (0 min) came out at 100%; in series [3] (60 min), 84%. Further, the “Cure … as monotherapy” value in series [4] is “not efficacious”.
With `Cc1cccc(-c2nn3c(c2-c2ccnc4ccc(O)cc24)CCC3)n1` [HYL001, 4-(2-(6-Methylpyridin-2-yl)-5,6-dihydro-4H-pyrrolo[1,2-b]pyrazol-3-yl)quinolin-6-ol], the “Number … (>65% competitive binding inhibition)” value in series [1] (0.3 μM compound, 22 kinases tested) is 1; in series [1] (3 μM compound, 22 kinases tested), 5; in series [1] (setting [5]), 13. In addition, the “Selectivity score S(>65_10), fraction of wildtype kinases inhibited >65%” value in series [1] (10 μM compound) is listed as 0.144; in series [1] (10 μM compound, listed as HYL), 0.14. The “Selectivity score S(>90_10), fraction of wildtype kinases inhibited >90%” value in series [1] (10 μM compound) turned out to be 0.1. Also, in series [1], the “Additional kinases showing >85% competitive binding” value is “ABL-1, CSNK1G2, and p38α”. For the same molecule, the “Fold higher potency compared to galunisertib in TGFβ reporter assay” value in the series with TGFβ pathway is around 2 fold. In addition, in the series with TGFβ pathway, the IC50 worked out at 72 nM. In addition, the Parent compound remaining is reported as 100% in series [2] (setting [6]), 67% in series [2] (setting [7]), 59% in series [2] (setting [8]) and 56% in series [2] (setting [9]). In series [2] (human, hepatocytes, pH 7.4), this molecule came in with a CLint scaled of 32.1 mL/min/kg. Moreover, in series [2] (setting [10]), the half-life was found to be 51.8 min. The “Buffer Stability” value in series [3] (0 min, pH 7.4) is on record as 100%; in series [3] (60 min, pH 7.4) it was 117%. For the same molecule, the “Cure … as monotherapy” value in series [4] is given as “not efficacious”. For the same molecule, the “Tumor burden in numbers of liver nodules” value in series [4] (dual therapy with anti-PD1) is “marked overall reduction”. In series [4] (dual therapy with anti-PD1, 71 mg/kg BID), the “Mice cured at the end point (number)” value is recorded as 8/10. Further, the “Mice cured at the end point” value in series [4] (dual therapy with anti-PD1, 71 mg/kg BID, surviving 2.5 months after injection) is “up to 80%”.
